Common to all, as to test: biochemical
For one assay, the target named is MAPKAPK3 (Homo sapiens, UniProt Q16644). More on the design: gene MAPKAPK3. The conditions noted are these: read-out: Dundee KSS % inhibition at 1uM. As to the method:
(§1) The METi and RAFi were screened against kinase panels (SelectScreen, Invitrogen; University of Dundee, Division of Signal Transduction Therapy, UK; Upstate Biotechnology/Millipore, Billerica, MA). In these selectivity assays the concentration of ATP was set to the Km value of ATP for each kinase tested to allow for a relative potency comparison between the various kinases. The compounds were tested at 1 µM final concentration. […] (A) Kinase selectivity screen (KSS) performed at Upstate Biotechnology. […] (B) KSS performed at University of Dundee (Division of Signal Transduction Therapy). […] (PDF) Click here for additional data file.

For another assay, the target named is PLK1 (Homo sapiens, UniProt P53350). More on the design: University of Dundee kinase panel, per cent inhibition of phosphorylation at ATP Km. As to the method:
as §1, with “file. Supplementary file pone.0039653.s002.pdf: Figure S2 Kinase Selectivity Screen of RAFi. (A) Kinase selectivity screen (KSS) performed at University of Dundee (Division of Signal Transduction Therapy). Values in % inhibition of phosphorylation given 1 µM of RAFi compared to control. (B) KSS performed at Invitrogen (Selectscreen Service) compared to control. Values in % inhibition of phosphorylation given 1 µM of RAFi. (C) Cell based dose response kinase inhibition of indicated kinases by RAFi. (PDF) Click here for additional data file.” for “file.”

For a further assay, the target named is T1, rat AMPKa2 (Rattus norvegicus, UniProt Q09137).
T1 construct: gene Prkaa2
T1 sequence (Q09137 whole entry): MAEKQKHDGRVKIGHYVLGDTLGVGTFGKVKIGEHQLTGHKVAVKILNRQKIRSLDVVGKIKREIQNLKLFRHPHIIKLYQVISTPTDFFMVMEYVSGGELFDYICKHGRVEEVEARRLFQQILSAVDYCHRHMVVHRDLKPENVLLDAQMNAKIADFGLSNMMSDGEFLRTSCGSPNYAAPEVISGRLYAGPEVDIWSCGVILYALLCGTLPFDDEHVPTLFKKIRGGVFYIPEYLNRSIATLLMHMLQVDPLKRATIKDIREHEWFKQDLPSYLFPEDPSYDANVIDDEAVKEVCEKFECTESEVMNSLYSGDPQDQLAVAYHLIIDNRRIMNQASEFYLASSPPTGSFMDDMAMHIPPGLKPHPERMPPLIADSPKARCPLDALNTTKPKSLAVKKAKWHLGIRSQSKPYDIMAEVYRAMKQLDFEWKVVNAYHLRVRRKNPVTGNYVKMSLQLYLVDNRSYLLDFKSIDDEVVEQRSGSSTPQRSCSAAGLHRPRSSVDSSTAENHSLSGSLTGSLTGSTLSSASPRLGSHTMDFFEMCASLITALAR
More on the design: University of Dundee kinase panel, percent inhibition of phosphorylation at 1 uM RAFi, ATP at Km. The conditions noted are these: read-out: Dundee KSS %inh at 1 uM. As to the method:
(§2) The METi and RAFi were screened against kinase panels (SelectScreen, Invitrogen; University of Dundee, Division of Signal Transduction Therapy, UK; Upstate Biotechnology/Millipore, Billerica, MA). In these selectivity assays the concentration of ATP was set to the Km value of ATP for each kinase tested to allow for a relative potency comparison between the various kinases. The compounds were tested at 1 µM final concentration. […] Supplementary file pone.0039653.s002.pdf: Figure S2 Kinase Selectivity Screen of RAFi. (A) Kinase selectivity screen (KSS) performed at University of Dundee (Division of Signal Transduction Therapy). Values in % inhibition of phosphorylation given 1 µM of RAFi compared to control. (B) KSS performed at Invitrogen (Selectscreen Service) compared to control. Values in % inhibition of phosphorylation given 1 µM of RAFi. (C) Cell based dose response kinase inhibition of indicated kinases by RAFi. (PDF) Click here for additional data file.

The next assay has as its target T2, SGK (Homo sapiens, UniProt O00141).
T2 construct: gene SGK1
More on the design: University of Dundee kinase panel, percent inhibition of phosphorylation at 1 uM RAFi, ATP at Km. The conditions noted are these: read-out: Dundee KSS %inh at 1 uM. As to the method:
as §2

A further assay addresses T3, MST2 (Homo sapiens, UniProt Q13188).
T3 construct: gene STK3
More on the design: University of Dundee kinase panel, percent inhibition of phosphorylation at 1 uM RAFi, ATP at Km. The settings on record: read-out: Dundee KSS %inh at 1 uM. As to the method: as §2

In the next assay the target is T4, CaMK1a (Homo sapiens, UniProt Q14012).
T4 construct: gene CAMK1
T4 sequence (Q14012 whole entry): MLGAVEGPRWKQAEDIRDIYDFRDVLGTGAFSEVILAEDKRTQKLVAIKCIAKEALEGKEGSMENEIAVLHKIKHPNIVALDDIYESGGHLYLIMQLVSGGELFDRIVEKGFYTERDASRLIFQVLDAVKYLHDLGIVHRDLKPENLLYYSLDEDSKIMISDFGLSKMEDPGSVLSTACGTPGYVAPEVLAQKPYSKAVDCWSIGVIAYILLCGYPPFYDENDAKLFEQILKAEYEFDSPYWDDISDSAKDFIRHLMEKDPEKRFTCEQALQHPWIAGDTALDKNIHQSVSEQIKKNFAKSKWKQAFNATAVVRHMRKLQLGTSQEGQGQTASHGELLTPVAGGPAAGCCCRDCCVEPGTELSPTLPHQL
More on the design: University of Dundee kinase panel, percent inhibition of phosphorylation at 1 uM RAFi, ATP at Km. The conditions noted are these: read-out: Dundee KSS %inh at 1 uM. As to the method: as §2

The next assay addresses CDK2 (Homo sapiens, UniProt P24941). More on the design: University of Dundee kinase panel, percent inhibition of phosphorylation at 1 uM RAFi, ATP at Km. The settings on record: read-out: Dundee KSS %inh at 1 uM. As to the method: as §2
The target of the next assay is T5, p38 (Homo sapiens, UniProt Q16539).
T5 construct: gene MAPK14
More on the design: University of Dundee kinase panel, percent inhibition of phosphorylation at 1 uM RAFi, ATP at Km. The conditions noted are these: read-out: Dundee KSS %inh at 1 uM. As to the method:
as §2

The target in a further assay is PIM3 (Homo sapiens, UniProt Q86V86). More on the design: University of Dundee kinase panel, percent inhibition of phosphorylation at 1 uM RAFi, ATP at Km. The settings on record: read-out: Dundee KSS %inh at 1 uM. As to the method:
as §2

The next assay concerns the target chicken CSK (Gallus gallus, UniProt P41239). More on the design: University of Dundee kinase panel, percent inhibition of phosphorylation at 1 uM RAFi, ATP at Km. The settings on record: read-out: Dundee KSS %inh at 1 uM. As to the method:
as §2

The next assay addresses T6, EEF-2 kinase (Homo sapiens, UniProt O00418).
T6 construct: gene EEF2K
More on the design: University of Dundee kinase panel, percent inhibition of phosphorylation at 1 uM RAFi, ATP at Km. The conditions noted are these: read-out: Dundee KSS %inh at 1 uM. As to the method: as §2

A further assay deals with T7, JNK1a (Homo sapiens, UniProt P45983).
T7 construct: gene MAPK8; isoform alpha
T7 sequence (P45983 whole entry, canonical isoform): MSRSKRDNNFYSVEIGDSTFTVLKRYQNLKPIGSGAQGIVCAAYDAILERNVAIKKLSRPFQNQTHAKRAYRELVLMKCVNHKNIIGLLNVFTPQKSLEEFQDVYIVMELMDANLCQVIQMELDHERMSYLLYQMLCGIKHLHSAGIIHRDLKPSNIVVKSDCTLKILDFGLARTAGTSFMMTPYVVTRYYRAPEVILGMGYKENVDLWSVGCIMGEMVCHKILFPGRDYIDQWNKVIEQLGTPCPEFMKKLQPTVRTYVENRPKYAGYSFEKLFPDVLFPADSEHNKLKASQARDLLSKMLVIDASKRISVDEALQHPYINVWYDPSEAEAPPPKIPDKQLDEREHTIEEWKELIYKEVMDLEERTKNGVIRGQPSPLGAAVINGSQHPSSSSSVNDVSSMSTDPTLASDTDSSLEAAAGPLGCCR
More on the design: University of Dundee kinase panel, percent inhibition of phosphorylation at 1 uM RAFi, ATP at Km. The settings on record: read-out: Dundee KSS %inh at 1 uM. As to the method: as §2

The target of another assay is mouse LCK (Mus musculus, UniProt P06240). More on the design: University of Dundee kinase panel, percent inhibition of phosphorylation at 1 uM RAFi, ATP at Km. The conditions noted are these: read-out: Dundee KSS %inh at 1 uM. As to the method: as §2
For another assay, the target named is MARK3 (Homo sapiens, UniProt P27448). More on the design: University of Dundee kinase panel, percent inhibition of phosphorylation at 1 uM RAFi, ATP at Km. The conditions noted are these: read-out: Dundee KSS %inh at 1 uM. As to the method:
as §2

The target in the next assay is T8, RSK2 (Homo sapiens, UniProt P51812).
T8 construct: gene RPS6KA3
T8 sequence (P51812 whole entry): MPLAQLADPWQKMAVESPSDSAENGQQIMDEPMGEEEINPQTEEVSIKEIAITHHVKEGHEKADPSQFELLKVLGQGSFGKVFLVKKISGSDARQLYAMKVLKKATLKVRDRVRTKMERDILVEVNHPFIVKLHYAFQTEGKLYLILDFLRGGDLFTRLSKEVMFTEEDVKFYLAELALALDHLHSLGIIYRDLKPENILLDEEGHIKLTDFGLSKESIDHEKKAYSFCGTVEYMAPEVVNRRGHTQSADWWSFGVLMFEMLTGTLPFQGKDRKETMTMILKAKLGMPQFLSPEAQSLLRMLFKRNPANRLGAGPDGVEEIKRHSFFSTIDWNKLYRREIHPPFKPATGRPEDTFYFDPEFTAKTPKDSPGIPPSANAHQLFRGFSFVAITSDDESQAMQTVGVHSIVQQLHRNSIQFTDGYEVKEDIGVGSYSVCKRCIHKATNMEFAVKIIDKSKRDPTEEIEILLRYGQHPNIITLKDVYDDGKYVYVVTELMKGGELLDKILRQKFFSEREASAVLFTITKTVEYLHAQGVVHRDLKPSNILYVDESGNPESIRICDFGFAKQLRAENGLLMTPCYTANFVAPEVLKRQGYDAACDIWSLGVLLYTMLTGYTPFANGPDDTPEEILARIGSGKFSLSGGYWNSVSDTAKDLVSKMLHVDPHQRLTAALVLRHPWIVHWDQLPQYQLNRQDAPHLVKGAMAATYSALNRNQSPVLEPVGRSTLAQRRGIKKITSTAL
More on the design: University of Dundee kinase panel, percent inhibition of phosphorylation at 1 uM RAFi, ATP at Km. The settings on record: read-out: Dundee KSS %inh at 1 uM. As to the method: as §2

We go through two compounds from PMC3382171 (PLoS ONE, 2012).

The structures appear in SMILES notation.

Sequence of PLK1 (P53350 whole entry): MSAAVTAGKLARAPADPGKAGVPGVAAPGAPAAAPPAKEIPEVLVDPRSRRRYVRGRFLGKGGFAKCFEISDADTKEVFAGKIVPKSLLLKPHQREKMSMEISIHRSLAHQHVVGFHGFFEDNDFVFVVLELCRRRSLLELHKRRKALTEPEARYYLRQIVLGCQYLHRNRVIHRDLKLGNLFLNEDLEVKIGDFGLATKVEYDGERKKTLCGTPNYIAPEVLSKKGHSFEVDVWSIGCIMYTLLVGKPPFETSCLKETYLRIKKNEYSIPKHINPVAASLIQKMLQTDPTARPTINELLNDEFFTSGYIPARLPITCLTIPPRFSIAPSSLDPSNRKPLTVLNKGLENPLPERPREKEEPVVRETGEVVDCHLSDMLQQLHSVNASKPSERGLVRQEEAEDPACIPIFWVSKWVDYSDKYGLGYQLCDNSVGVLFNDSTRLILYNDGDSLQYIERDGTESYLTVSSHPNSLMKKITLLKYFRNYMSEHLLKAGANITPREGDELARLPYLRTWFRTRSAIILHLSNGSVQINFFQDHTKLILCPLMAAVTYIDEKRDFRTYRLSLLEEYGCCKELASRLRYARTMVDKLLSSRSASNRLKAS
T2 sequence (O00141 whole entry): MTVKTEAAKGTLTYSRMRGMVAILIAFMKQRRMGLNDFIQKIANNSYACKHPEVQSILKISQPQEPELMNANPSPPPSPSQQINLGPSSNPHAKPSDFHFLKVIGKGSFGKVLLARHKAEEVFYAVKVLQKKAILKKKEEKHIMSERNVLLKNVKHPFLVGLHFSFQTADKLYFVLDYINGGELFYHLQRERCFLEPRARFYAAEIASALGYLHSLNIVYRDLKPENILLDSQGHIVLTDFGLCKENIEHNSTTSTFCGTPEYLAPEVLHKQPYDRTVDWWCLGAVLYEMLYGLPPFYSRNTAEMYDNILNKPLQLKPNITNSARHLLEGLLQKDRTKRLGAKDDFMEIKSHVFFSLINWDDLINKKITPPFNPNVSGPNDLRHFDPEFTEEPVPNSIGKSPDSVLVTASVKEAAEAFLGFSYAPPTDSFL
T6 sequence (O00418 whole entry): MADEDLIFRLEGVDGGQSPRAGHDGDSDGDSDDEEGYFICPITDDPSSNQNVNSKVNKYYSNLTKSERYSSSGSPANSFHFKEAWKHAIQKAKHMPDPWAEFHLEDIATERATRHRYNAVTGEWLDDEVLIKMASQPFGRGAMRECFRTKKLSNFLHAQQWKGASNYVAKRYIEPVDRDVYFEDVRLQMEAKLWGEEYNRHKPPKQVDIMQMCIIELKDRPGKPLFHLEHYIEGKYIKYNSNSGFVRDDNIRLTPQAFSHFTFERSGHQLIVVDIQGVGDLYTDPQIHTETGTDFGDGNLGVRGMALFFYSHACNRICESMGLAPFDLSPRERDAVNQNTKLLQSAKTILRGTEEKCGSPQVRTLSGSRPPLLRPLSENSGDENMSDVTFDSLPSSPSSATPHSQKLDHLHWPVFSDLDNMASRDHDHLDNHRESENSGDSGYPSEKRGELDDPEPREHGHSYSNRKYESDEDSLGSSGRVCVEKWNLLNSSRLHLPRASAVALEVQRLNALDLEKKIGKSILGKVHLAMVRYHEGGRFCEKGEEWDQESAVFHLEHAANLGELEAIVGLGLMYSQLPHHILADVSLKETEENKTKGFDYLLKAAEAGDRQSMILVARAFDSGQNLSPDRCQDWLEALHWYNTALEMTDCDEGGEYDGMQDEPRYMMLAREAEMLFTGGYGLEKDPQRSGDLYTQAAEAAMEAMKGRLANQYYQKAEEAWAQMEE
Sequence of MARK3 (P27448 whole entry): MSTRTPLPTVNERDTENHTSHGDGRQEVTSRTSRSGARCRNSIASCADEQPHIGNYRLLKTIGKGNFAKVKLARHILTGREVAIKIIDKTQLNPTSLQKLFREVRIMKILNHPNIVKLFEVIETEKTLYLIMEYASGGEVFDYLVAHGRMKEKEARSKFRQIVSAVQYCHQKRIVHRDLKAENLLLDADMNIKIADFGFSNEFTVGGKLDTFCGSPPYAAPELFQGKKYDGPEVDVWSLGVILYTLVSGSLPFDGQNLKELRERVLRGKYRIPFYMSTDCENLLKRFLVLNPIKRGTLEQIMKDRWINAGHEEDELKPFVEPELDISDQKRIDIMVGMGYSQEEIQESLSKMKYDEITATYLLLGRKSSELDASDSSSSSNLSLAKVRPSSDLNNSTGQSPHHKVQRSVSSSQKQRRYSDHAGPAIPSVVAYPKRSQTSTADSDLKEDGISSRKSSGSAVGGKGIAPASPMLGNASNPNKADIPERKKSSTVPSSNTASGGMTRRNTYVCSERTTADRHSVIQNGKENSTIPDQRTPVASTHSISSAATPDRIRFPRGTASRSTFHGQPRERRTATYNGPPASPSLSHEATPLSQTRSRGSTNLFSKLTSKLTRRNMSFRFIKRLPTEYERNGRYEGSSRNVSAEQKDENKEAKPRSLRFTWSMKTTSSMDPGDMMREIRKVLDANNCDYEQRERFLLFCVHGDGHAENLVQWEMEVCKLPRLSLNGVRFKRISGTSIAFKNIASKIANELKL

For the compound `OCCn1cc(-c2cnc3nnn(Cc4ccc5ncccc5c4)c3n2)cn1` [METi, PF-04217903], the values for the inhibition at 1 µM on MAPKAPK3 and at PLK1 (read-out: Dundee KSS % inhibition at 1uM) were 18.6% and 13.6%, respectively. At PLK1 (inhibitor, Dundee KSS % inhibition at 1uM, 1 µM), the “Dundee KSS % inhibition at 1uM” value was found to be 10.1%.

For `N#CCCNc1nccc(-c2cn(CC(F)F)nc2-c2cnc3[nH]ccc3c2)n1` [RAFi, PF-04880594], the inhibition at 1 µM was determined as 15% on rat AMPKa2; 4% on SGK; 63% at MST2; 18% at CaMK1a; 38% at CDK2; 96% at p38. For the same compound, the inhibition at 1 µM at PIM3 was 3%; at chicken CSK it was 27%; at EEF-2 kinase, 0%; on JNK1a it was 62%; at mouse LCK, 22%; at MARK3, 20%. Further, the inhibition at 1 µM at RSK2 amounted to 30%.
